{
  "source": "ChEMBL document CHEMBL4334471",
  "about": "“Discovery of 1,8-disubstituted-[1,2,3]triazolo[4,5-c]quinoline derivatives as a new class of Hippo signaling pathway inhibitors” (Bioorg Med Chem Lett, 2019)",
  "key": {"[1]": {"target": "Tyrosine-protein kinase Fgr (Homo sapiens) (UniProt P09769)", "test": "Inhibition of recombinant human FGR (2 to end residues) assessed as residual activity at 10 uM using poly(Glu, Tyr) 4:1 as substrate at 40 mins in presence of [gamma-33ATP] by scintillation counting based radiometry assay relative to control"}, "[2]": {"target": "Citron Rho-interacting kinase (Homo sapiens) (UniProt O14578)", "sequence (O14578 whole entry)": "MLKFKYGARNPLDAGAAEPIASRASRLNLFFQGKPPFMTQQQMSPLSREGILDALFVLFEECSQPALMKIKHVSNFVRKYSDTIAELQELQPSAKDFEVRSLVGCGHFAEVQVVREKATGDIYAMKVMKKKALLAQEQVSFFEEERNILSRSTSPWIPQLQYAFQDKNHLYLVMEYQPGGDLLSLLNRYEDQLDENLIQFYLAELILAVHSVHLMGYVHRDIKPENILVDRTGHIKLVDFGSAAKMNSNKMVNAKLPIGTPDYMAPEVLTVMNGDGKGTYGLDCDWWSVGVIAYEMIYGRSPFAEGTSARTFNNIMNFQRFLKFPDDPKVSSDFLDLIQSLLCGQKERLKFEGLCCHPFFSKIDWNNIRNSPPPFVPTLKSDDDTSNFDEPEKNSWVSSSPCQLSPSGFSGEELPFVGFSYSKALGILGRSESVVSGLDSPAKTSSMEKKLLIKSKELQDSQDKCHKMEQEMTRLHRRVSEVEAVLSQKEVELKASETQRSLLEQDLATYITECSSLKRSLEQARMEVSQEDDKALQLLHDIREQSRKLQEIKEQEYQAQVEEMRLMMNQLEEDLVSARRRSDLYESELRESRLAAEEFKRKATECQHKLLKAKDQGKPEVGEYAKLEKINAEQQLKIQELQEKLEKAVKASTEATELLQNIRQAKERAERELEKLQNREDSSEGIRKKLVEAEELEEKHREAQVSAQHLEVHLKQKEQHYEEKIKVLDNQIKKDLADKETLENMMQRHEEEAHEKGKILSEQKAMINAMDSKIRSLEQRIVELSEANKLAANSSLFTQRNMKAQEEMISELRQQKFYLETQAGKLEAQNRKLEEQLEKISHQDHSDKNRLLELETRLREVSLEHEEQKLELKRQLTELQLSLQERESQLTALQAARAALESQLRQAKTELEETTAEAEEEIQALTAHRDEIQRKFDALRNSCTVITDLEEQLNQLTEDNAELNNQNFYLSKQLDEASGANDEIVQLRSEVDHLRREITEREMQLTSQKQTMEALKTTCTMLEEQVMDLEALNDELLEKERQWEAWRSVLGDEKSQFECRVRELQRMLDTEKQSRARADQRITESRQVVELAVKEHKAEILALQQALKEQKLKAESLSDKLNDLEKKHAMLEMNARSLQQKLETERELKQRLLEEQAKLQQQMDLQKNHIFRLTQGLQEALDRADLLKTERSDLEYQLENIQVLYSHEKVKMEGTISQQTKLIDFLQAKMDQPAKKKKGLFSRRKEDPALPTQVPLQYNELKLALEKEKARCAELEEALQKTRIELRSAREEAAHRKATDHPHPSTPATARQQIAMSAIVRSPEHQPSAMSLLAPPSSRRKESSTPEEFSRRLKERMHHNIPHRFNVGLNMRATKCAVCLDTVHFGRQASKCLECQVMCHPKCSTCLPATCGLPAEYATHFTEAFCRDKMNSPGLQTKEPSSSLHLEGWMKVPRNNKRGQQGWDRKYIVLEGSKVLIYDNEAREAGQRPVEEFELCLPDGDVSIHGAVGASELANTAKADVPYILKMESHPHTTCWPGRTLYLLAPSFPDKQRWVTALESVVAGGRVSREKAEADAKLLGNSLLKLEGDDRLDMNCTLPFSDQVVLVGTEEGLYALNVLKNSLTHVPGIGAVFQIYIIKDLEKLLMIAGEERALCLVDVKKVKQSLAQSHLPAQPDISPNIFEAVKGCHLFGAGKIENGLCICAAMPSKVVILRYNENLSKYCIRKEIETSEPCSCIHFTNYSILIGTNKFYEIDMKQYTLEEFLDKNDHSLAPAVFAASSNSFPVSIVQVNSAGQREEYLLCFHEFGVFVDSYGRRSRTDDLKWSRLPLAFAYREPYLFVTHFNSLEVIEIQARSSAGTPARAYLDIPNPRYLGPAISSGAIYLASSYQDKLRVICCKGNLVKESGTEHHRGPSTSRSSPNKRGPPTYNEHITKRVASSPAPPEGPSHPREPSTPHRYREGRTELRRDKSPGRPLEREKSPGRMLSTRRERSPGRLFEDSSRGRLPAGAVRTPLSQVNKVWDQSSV", "test": "Inhibition of recombinant human CRIK assessed as residual activity at 10 uM KKLRRTLSVA as substrate incubated 120 mins in presence of [gamma-33ATP] by scintillation counting based radiometry assay relative to control"}, "[3]": {"target": "Cyclin-dependent kinase 5/CDK5 activator 1 (Homo sapiens) (UniProt Q00535+Q15078)", "test": "Inhibition of recombinant full length human CDK5/p25 assessed as residual activity at 10 uM using histone H1 as substrate incubated for 40 mins in presence of [gamma-33ATP] by scintillation counting based radiometry assay relative to control", "format": "protein-complex assay"}, "[4]": {"target": "Serine/threonine-protein kinase WNK1 (Homo sapiens) (UniProt Q9H4A3)", "test": "Inhibition of recombinant human WNK1 (1 to 491 residues) assessed as residual activity at 10 uM using myelin basic protein as substrate incubated for 40 mins in presence of [gamma33P]ATP by scintillation counting based radiometry assay relative to control"}, "[5]": {"target": "5'-AMP-activated protein kinase catalytic subunit alpha-2 (Homo sapiens) (UniProt P54646)", "sequence (P54646 whole entry, looked up)": "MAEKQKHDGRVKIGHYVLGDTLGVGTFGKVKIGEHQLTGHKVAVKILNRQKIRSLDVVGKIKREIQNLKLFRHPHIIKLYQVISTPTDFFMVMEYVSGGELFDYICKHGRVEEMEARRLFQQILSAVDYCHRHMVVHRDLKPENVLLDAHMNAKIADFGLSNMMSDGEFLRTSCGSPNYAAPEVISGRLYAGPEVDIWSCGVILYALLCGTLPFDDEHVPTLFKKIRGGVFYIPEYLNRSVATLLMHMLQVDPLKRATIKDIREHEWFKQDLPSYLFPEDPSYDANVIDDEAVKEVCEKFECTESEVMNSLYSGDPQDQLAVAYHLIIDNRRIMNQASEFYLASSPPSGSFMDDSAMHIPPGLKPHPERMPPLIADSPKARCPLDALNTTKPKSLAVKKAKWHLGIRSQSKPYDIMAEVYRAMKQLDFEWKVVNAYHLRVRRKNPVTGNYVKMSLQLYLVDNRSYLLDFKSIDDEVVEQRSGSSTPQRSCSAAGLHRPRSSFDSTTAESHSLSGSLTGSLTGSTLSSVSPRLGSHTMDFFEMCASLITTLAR", "test": "Inhibition of recombinant full length human AMPKalpha2 assessed as residual activity at 10 uM using AMARAASAAALAR as substrate incubated for 40 mins in presence of [gamma-33ATP] by scintillation counting based radiometry assay relative to control"}, "[6]": {"target": "cAMP-dependent protein kinase catalytic subunit alpha (Homo sapiens) (UniProt P17612)", "test": "Inhibition of recombinant human PKA assessed as residual activity at 10 uM relative to control"}, "[7]": {"target": "Serine/threonine-protein kinase Chk2 (Homo sapiens) (UniProt O96017)", "test": "Inhibition of recombinant human CHK2 (5 to end residues) assessed as residual activity at 10 uM using KKKVSRSGLYRSPSMPENLNRPR as substrate incubated for 40 mins in presence of [gamma-33ATP] by scintillation counting based radiometry assay relative to control"}, "[8]": {"target": "Serine/threonine-protein kinase B-raf (Homo sapiens) (UniProt P15056)", "test": "Inhibition of recombinant full length human B-Raf (416 to end residues) assessed as residual activity at 10 uM using myelin basic protein substrate incubated for 40 mins in presence of [gamma-33ATP] by scintillation counting based radiometry assay relative to control"}, "[9]": {"target": "Receptor-type tyrosine-protein kinase FLT3 (Homo sapiens) (UniProt P36888)", "test": "Inhibition of recombinant human FLT3 (564 to end residues) assessed as residual activity at 10 uM using EAIYAAPFAKKK as substrate at 40 mins in presence of [gamma-33ATP] by scintillation counting based radiometry assay relative to control"}, "[10]": {"target": "PAS domain-containing serine/threonine-protein kinase (Homo sapiens) (UniProt Q96RG2)", "sequence (Q96RG2 whole entry, the tested form may be a part)": "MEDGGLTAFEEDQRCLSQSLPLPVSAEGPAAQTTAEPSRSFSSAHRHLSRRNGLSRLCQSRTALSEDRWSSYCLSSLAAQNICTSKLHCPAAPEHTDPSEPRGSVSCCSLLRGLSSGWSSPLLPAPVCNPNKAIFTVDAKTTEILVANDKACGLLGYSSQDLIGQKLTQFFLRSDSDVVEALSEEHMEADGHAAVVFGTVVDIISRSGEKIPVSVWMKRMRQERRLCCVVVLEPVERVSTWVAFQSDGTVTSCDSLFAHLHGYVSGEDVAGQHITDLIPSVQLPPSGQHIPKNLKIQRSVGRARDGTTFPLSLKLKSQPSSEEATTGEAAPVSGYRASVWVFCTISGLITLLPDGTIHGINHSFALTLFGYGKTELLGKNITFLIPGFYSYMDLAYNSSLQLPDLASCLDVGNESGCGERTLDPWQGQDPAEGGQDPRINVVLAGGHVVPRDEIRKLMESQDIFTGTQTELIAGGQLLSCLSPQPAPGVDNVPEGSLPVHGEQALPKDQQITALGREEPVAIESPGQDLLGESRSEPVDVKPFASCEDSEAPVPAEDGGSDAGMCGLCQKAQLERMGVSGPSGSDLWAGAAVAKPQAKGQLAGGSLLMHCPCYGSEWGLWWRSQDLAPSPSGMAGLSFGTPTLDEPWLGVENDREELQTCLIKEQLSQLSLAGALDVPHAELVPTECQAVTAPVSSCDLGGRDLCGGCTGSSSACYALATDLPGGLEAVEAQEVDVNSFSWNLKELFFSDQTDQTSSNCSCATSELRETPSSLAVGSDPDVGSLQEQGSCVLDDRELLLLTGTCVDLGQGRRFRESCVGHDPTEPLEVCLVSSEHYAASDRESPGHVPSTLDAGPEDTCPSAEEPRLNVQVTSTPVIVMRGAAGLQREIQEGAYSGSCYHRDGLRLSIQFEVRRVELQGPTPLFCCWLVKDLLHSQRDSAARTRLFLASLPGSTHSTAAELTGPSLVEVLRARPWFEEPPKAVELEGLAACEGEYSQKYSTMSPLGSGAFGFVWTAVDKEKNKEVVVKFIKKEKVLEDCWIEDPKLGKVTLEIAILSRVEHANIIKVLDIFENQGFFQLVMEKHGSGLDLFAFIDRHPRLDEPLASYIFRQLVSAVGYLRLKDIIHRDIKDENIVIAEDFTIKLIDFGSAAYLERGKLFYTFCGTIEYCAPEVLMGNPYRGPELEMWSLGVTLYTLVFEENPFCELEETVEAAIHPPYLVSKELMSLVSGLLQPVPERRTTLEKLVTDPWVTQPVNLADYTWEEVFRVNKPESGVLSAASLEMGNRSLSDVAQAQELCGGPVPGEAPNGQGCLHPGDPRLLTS", "test": "Inhibition of recombinant human PASK (995 to end residues) assessed as residual activity at 10 uM using KKLNRTLSFAEPG as substrate measured after 40 mins in presence of [gamma33P]ATP by scintillation counting based radiometry assay relative to control"}, "[11]": {"target": "Serine/threonine-protein kinase 35 (Homo sapiens) (UniProt Q8TDR2)", "test": "Inhibition of recombinant full length human CLIK1 assessed as residual activity at 10 uM using RSRSRSRSRSRS as substrate incubated 40 mins in presence of [gamma-33ATP] by scintillation counting based radiometry assay relative to control"}, "[12]": {"target": "Serine/threonine-protein kinase 16 (Homo sapiens) (UniProt O75716)", "test": "Inhibition of human STK16 assessed as residual activity at 10 uM in presence of [gamma33P]ATP by scintillation counting based radiometry assay relative to control"}, "[13]": {"species_on_record": "Mus musculus", "test": "Inhibition of recombinant full length mouse PI3K p110/p85 assessed as residual activity at 10 uM using phosphatidylinositol-4, 5-bisphosphate as substrate incubated for 40 mins in presence of [gamma33P]ATP by scintillation counting based radiometry assay relative to control"}, "[14]": {"test_system": "Platelet-derived growth factor receptor alpha (Homo sapiens), P16234 [V561D]", "test": "Inhibition of human PDGFRalpha V561D mutant (550 to end residues) assessed as residual activity at 10 uM using poly(Glu, Tyr) 4:1 as substrate measured after 40 mins in presence of [gamma33P]ATP by scintillation counting based radiometry assay relative to control"}, "[15]": {"target": "Tyrosine-protein kinase ZAP-70 (Homo sapiens) (UniProt P43403)", "test": "Inhibition of recombinant full length human ZAP70 assessed as residual activity at 10 uM using poly(Glu, Tyr) 4:1 as substrate incubated for 40 mins in presence of [gamma33P]ATP by scintillation counting based radiometry assay relative to control"}, "[16]": {"target": "SRSF protein kinase 1 (Homo sapiens) (UniProt Q96SB4)", "sequence (Q96SB4 whole entry)": "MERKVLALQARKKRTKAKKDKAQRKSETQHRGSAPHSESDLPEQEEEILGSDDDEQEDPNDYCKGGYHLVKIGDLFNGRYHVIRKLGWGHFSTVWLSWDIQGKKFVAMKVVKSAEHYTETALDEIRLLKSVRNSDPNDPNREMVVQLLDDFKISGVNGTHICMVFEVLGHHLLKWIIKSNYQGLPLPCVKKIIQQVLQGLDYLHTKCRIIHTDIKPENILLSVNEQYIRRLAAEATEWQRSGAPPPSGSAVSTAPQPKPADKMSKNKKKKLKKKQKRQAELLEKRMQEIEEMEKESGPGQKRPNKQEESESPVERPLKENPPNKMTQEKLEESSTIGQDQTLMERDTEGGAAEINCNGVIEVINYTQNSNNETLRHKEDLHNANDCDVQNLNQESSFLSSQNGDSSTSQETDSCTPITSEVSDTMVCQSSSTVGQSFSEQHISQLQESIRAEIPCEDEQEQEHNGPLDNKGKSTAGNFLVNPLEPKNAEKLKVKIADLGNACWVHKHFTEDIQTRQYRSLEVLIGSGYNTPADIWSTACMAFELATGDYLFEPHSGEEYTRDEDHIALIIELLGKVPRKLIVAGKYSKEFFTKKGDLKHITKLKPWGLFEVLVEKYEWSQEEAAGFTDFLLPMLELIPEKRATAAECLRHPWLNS", "test": "Inhibition of recombinant human SRPK1 (2 to end residues) assessed as residual activity at 10 uM using RSRSRSRSRSRSRSR as substrate incubated for 40 mins in presence of [gamma33P]ATP by scintillation counting based radiometry assay relative to control"}, "[17]": {"target": "Fibroblast growth factor receptor 3 (Homo sapiens) (UniProt P22607)", "test": "Inhibition of recombinant human FGFR3 (447 to 761 residues) assessed as residual activity at 10 uM using poly(Glu, Tyr) 4:1 as substrate at 40 mins in presence of [gamma-33ATP] by scintillation counting based radiometry assay relative to control"}, "[18]": {"target": "Serine/threonine-protein kinase VRK1 (Homo sapiens) (UniProt Q99986)", "sequence (Q99986 whole entry)": "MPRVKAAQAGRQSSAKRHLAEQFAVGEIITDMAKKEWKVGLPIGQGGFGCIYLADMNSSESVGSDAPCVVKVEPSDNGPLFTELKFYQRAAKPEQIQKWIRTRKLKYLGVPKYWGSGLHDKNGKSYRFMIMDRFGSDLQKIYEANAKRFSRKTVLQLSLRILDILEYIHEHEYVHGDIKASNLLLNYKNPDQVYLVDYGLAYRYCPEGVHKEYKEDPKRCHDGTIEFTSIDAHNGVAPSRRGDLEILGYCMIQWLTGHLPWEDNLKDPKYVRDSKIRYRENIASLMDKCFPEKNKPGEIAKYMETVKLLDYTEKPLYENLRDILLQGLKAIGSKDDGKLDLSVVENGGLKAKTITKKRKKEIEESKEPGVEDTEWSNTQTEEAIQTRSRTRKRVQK", "test": "Inhibition of recombinant human VRK1 assessed as residual activity at 10 uM in presence of [gamma33P]ATP by scintillation counting based radiometry assay relative to control"}, "[19]": {"target": "Mitogen-activated protein kinase kinase kinase kinase 1 (Homo sapiens) (UniProt Q92918)", "test": "Inhibition of human HPK1 (1 to 346 residues) assessed as residual activity at 10 uM using myelin basic protein as substrate after 40 mins by [gamma-33ATP] radiometric assay relative to control"}, "[20]": {"target": "Serine/threonine-protein kinase ICK (Homo sapiens) (UniProt Q9UPZ9)", "test": "Inhibition of human ICK (1 to 312 residues) assessed as residual activity at 10 uM using RRRFRPASPLRGP as substrate after 40 mins by [gamma-33ATP] radiometric assay relative to control"}, "[21]": {"target": "Homeodomain-interacting protein kinase 1 (Homo sapiens) (UniProt Q86Z02)", "test": "Inhibition of human HIPK1 (158 to 555 residues) assessed as residual activity at 10 uM using myelin basic protein as substrate after 40 mins by [gamma-33ATP] radiometric assay relative to control"}},
  "data": [
    {"smiles": "C[C@@H](c1ccccc1)n1nnc2cnc3ccc(-c4cnc5[nH]ccc5c4)cc3c21", "values": [
      {"measurement": "Activity", "setting": "[1]", "result": 5, "unit": "%"},
      {"measurement": "Activity", "setting": "[2]", "result": 80, "unit": "%"},
      {"measurement": "Activity", "setting": "[3]", "result": 93, "unit": "%"},
      {"measurement": "Activity", "setting": "[4]", "result": 86, "unit": "%"},
      {"measurement": "Activity", "setting": "[5]", "result": 35, "unit": "%"},
      {"measurement": "Activity", "setting": "[6]", "result": 82, "unit": "%"},
      {"measurement": "Activity", "setting": "[7]", "result": 57, "unit": "%"},
      {"measurement": "Activity", "setting": "[8]", "result": 73, "unit": "%"},
      {"measurement": "Activity", "setting": "[9]", "result": 28, "unit": "%"},
      {"measurement": "Activity", "setting": "[10]", "result": 30, "unit": "%"},
      {"measurement": "Activity", "setting": "[11]", "result": 75, "unit": "%"},
      {"measurement": "Activity", "setting": "[12]", "result": 59, "unit": "%"},
      {"measurement": "Activity", "setting": "[13]", "result": "4 to 12", "unit": "%"},
      {"measurement": "Activity", "setting": "[14]", "result": 2, "unit": "%"},
      {"measurement": "Activity", "setting": "[15]", "result": 150, "unit": "%"},
      {"measurement": "Activity", "setting": "[16]", "result": 62, "unit": "%"},
      {"measurement": "Activity", "setting": "[17]", "result": 50, "unit": "%"},
      {"measurement": "Activity", "setting": "[18]", "result": 96, "unit": "%"},
      {"measurement": "Activity", "setting": "[19]", "result": 84, "unit": "%"},
      {"measurement": "Activity", "setting": "[20]", "result": 44, "unit": "%"},
      {"measurement": "Activity", "setting": "[21]", "result": 78, "unit": "%"}
    ]}
  ]
}
